Details: not given

Compared with `COc1cc([C@@H]2c3cc4c(cc3[C@H](O)[C@H]3COC(=O)[C@@H]23)OCO4)cc(OC)c1OC`, `COc1ccc(C(=O)O)c(OC)c1` is lower in melting point: 206 °C for the first, 109 °C for the second.

Going from `C#CCOc1cc(-n2nc3n(c2=O)CCCC3)c(Cl)cc1Cl` to `Clc1cccc(Cl)c1Br`, the melting point falls from 168 °C to 65 °C.

Going from `O=C(O)COc1ccc(Cl)cc1` to `NC(=O)c1ccc(Cl)cc1`, the melting point rises from 164 °C to 174 °C.

Compared with `CC(C)Br`, `CCCC(C)I` (configuration not stated) is higher in melting point: -89 °C for the first, -50 °C for the second.

Compared with `NCCCO`, `COC(=O)CCCC(=O)OC` is lower in melting point: 11 °C for the first, -42.5 °C for the second.

First: CCCCC(=O)O[C@]1(C(=O)CO)[C@@H](C)C[C@H]2[C@@H]3CCC4=CC(=O)C=C[C@]4(C)[C@@]3(F)[C@@H](O)C[C@@]21C
Second: CC(=O)NCC1(c2ccccc2)CCN(CCCC(=O)c2ccc(F)cc2)CC1
The melting point of the first is higher: 184 °C for the first, 98.5 °C for the second.

First: O=C1NCCCN1
Second: O=S(=O)(O)NC1CCCCC1
The melting point of the first is higher: 265 °C for the first, 170 °C for the second.

Going from `CCCCCCCCCCCC#N` to `CCOCCOCCOCC`, the melting point falls from 4 °C to -45 °C.

Compared with `O=C(O)C1c2ccccc2-c2ccccc21`, `O=C(Cc1ccccc1)OC(=O)Cc1ccccc1` is lower in melting point: 230 °C for the first, 73.3 °C for the second.

Going from `Cc1cccc(N(C)C(=S)Oc2ccc3c(c2)C2CCC3C2)c1` (configuration not stated) to `C=C[C@H]1C[N@@]2CC[C@H]1C[C@H]2[C@H](O)c1ccnc2ccc(OC)cc12.Cl`, the melting point rises from 93 °C to 159 °C.

First: CCC(C)(C#N)/N=N/C(C)(C#N)CC (configuration not stated)
Second: CC(C)(C)CC(C)(C)S
The melting point of the first is higher: 50 °C for the first, -74 °C for the second.

Going from `FC(F)(Cl)C(Cl)(Cl)C(F)(F)Cl` to `FC(F)C(F)(F)F`, the melting point falls from -42.9 °C to -103 °C.

Going from `c1ccc2sc(SSN3CCOCC3)nc2c1` to `O=C1C=CC(=O)c2ccccc21`, the melting point falls from 135 °C to 128 °C.

Going from `CC(C)=NNc1ccccc1` to `CC(=O)NC(Cc1ccccc1)C(=O)O` (stereo in doubt), the melting point rises from 42 °C to 172 °C.

First: C[C@H](Oc1ccc(Oc2nc3ccc(Cl)cc3o2)cc1)C(=O)O
Second: O=C(O)Cc1sc(-c2ccccc2)nc1-c1ccc(Cl)cc1
The melting point of the first is lower: 158 °C for the first, 162 °C for the second.

First: CC(=O)c1ccc(O[C@@H]2O[C@H](CO)[C@@H](O)[C@H](O)[C@H]2O)cc1
Second: O=c1c(O)c(-c2ccc(O)c(O)c2)oc2cc(O)ccc12
The melting point of the first is lower: 196 °C for the first, 330 °C for the second.

First: N#Cc1sc2c(=O)c3ccccc3c(=O)c=2sc1C#N
Second: Clc1cccc2c1Oc1ccccc1O2
The melting point of the first is higher: 225 °C for the first, 104 °C for the second.

First: FC(F)(F)c1ccc(Cl)cc1Cl
Second: O=[N+]([O-])c1cc(C(F)(F)F)cc([N+](=O)[O-])c1Cl
The melting point of the first is lower: -26 °C for the first, 57 °C for the second.

Going from `NC(=O)C=Cc1ccccc1` to `CCC(C)c1ccccc1O` (configuration not stated), the melting point falls from 149 °C to 16 °C.

Going from `O=C(O)c1cc(S(=O)(=O)O)ccc1O` to `CC=Cc1ccc(O)c(OC)c1`, the melting point falls from 120 °C to 11.8 °C.

First: O=[N+]([O-])c1ccc(F)cc1F
Second: N#CCC(N)=O
The melting point of the first is lower: 9.8 °C for the first, 122 °C for the second.

First: CC(C)CB(CC(C)C)CC(C)C
Second: CCC(C)CC(O)CC (configuration not stated)
The melting point of the first is higher: -88 °C for the first, -91.2 °C for the second.

Compound `C` has a melting point of -182 °C.

Compared with `Clc1cc(Cl)c2c(Cl)c(Cl)cc(Cl)c2c1Cl`, `C` is lower in log10 Koa: 9.69 for the first, -0.38 for the second.

First: Clc1cc(Cl)c2c(Cl)c(Cl)cc(Cl)c2c1Cl
Second: C#CCOc1cc(-n2nc3n(c2=O)CCCC3)c(Cl)cc1Cl
The log10 vapour pressure (mmHg) of the first is higher: -6.46 for the first, -11.1 for the second.

Going from `CC(C)Br` to `CCCC(C)I` (configuration not stated), the log10 vapour pressure (mmHg) falls from 2.34 to 1.04.

First: CCCC[C@@H](O)CCC
Second: CCCCCCCCCCCC#N
The log10 vapour pressure (mmHg) of the first is higher: -0.507 for the first, -2.63 for the second.

Compared with `NCCCO`, `COC(=O)CCCC(=O)OC` is higher in log10 vapour pressure (mmHg): -1.11 for the first, -0.745 for the second.

First: CC(C)(C)CC(C)(C)S
Second: CCC=C(C)CC
The log10 vapour pressure (mmHg) of the first is lower: 0.716 for the first, 1.91 for the second.

Compared with `FC(F)C(F)(F)F`, `FC(F)(F)c1ccc(Cl)cc1Cl` is lower in log10 vapour pressure (mmHg): 4.02 for the first, 0.0449 for the second.

Going from `N#Cc1sc2c(=O)c3ccccc3c(=O)c=2sc1C#N` to `Clc1cccc2c1Oc1ccccc1O2`, the log10 vapour pressure (mmHg) rises from -10.7 to -4.05.

Going from `CCOCCOCCOCC` to `CC=Cc1ccc(O)c(OC)c1`, the log10 vapour pressure (mmHg) falls from -0.284 to -1.92.

Compound `C` has a log10 vapour pressure (mmHg) of 5.67.

Going from `CC(C)Br` to `CCCC(C)I` (configuration not stated), the boiling point rises from 59.5 °C to 150 °C.

First: CCCC[C@@H](O)CCC
Second: CCC(C)CC(O)CC (configuration not stated)
The boiling point of the first is higher: 175 °C for the first, 172 °C for the second.

Compared with `O=C1OC(=O)C(F)(F)C1(F)F`, `FC(F)C(F)(F)F` is lower in boiling point: 54.5 °C for the first, -48.5 °C for the second.

Going from `NCCCO` to `COC(=O)CCCBr`, the boiling point falls from 188 °C to 186 °C.

First: CCCCc1ccc(N)cc1
Second: CCc1ccc(CC)c(CC)c1
The boiling point of the first is higher: 261 °C for the first, 218 °C for the second.

First: CCCCCCCCCCCC#N
Second: CCCCCCCC=CC=O
The boiling point of the first is higher: 277 °C for the first, 230 °C for the second.

First: COC(=O)CCCC(=O)OC
Second: COCC(O)CO (configuration not stated)
The boiling point of the first is lower: 214 °C for the first, 220 °C for the second.

First: FC(F)(Cl)C(Cl)(Cl)C(F)(F)Cl
Second: OCC(F)(F)C(F)C(F)(F)F (configuration not stated)
The boiling point of the first is lower: 112 °C for the first, 117 °C for the second.

Going from `CSCCl` to `CCC=C(C)CC`, the boiling point rises from 105 °C to 112 °C.

First: Clc1cccc(Cl)c1Br
Second: FC(F)(F)c1ccc(Cl)cc1Cl
The boiling point of the first is higher: 242 °C for the first, 178 °C for the second.

Going from `CC(C)(C)CC(C)(C)S` to `CC(C)CB(CC(C)C)CC(C)C`, the boiling point rises from 160 °C to 188 °C.

Going from `CCOCCOCCOCC` to `CCN(CC)C(C)=O`, the boiling point falls from 188 °C to 186 °C.

Going from `O=[N+]([O-])c1ccc(F)cc1F` to `CC=Cc1ccc(O)c(OC)c1`, the boiling point rises from 207 °C to 266 °C.

Compared with `CCC(C)c1ccccc1O` (configuration not stated), `c1ccc2c(c1)CCNC2` is higher in boiling point: 228 °C for the first, 232 °C for the second.

`C` showed a boiling point of -162 °C.

For `CC(C)Br`, the ready biodegradability was “readily biodegradable”.
For `COC(=O)CCCC(=O)OC`, the ready biodegradability was “readily biodegradable”.
For `C/C=C/C(=O)N(CC)c1ccccc1C`, the ready biodegradability was “not readily biodegradable”.
For `N#Cc1sc2c(=O)c3ccccc3c(=O)c=2sc1C#N`, the ready biodegradability was “not readily biodegradable”.
In the case of `Clc1ccccc1NNc1ccccc1Cl`, the ready biodegradability is reported as “not readily biodegradable”.
For `O=C1C=CC(=O)c2ccccc21`, the ready biodegradability was “not readily biodegradable”.
For `CCC(C)c1ccccc1O` (configuration not stated), the ready biodegradability was “not readily biodegradable”.

With `Clc1ccc(Cl)c(-c2c(Cl)c(Cl)cc(Cl)c2Cl)c1Cl` the log10 Henry constant (atm·m³/mol) was -4.62.

Work on `CCN(CC)C(C)=O` yielded a log10 Koc (L/kg) of 1.84.

Same assay, conditions: fish

Compared with `Clc1cc2oc3cc(Cl)c(Cl)cc3c2cc1Cl`, `FC(F)(F)c1ccc(Cl)cc1Cl` is lower in log10 BCF: 3.61 for the first, 3.37 for the second.

Going from `ClC(Cl)C(Cl)Cl` to `Clc1ccccc1NNc1ccccc1Cl`, the log10 BCF rises from 1.11 to 3.66.

Compound `c1ccc2c(c1)-c1cccc3cccc-2c13` has a log10 BCF of 3.56.

Going from `Clc1cc2oc3cc(Cl)c(Cl)cc3c2cc1Cl` to `Clc1cc(Cl)c(-c2cc(Cl)c(Cl)c(Cl)c2Cl)c(Cl)c1`, the log10 biotransformation half-life (days) rises from 0.56 to 2.51.

First: ClC(Cl)C(Cl)Cl
Second: FC(F)(F)c1ccc(Cl)cc1Cl
The log10 biotransformation half-life (days) of the first is lower: -0.67 for the first, 1.81 for the second.

`c1ccc2c(c1)-c1cccc3cccc-2c13` showed a log10 biotransformation half-life (days) of -0.02.

Source: the OPERA property sets (Mansouri et al. 2018)
